# Results published in patent US7488730B2, “N-(1,2,3,4-tetrahydronaphthalen-1-yl)-4-phenyl-1-piperazinealkylamide derivatives, and therapeutic use thereof as 5-HT7 receptor ligands” (Universita Degli Studi Di Bari, priority 2005, dated 2009).
# Counter-ions that a name gives are not always drawn. No end group written: not given here.
# Tests used:
# [1] = tested on: isolated guinea-pig ileum; assay: Substance P contraction of isolated guinea-pig ileum (concentration-response); details: 100 nM
# Source text: Isolated Guinea-Pig Ileum Assay.
# [2] = target: T1, rat cloned 5-HT7 receptor (Rattus norvegicus, UniProt P32305); assay: Radioligand binding assay ([3H]-LSD) at rat cloned 5-HT7Rs; details: for Ki: [3H]-LSD, rat recombinant 5-HT7R expressed in HEK-293 cells
# T1 construct: purchased PerkinElmer-NEN; host or cells: HEK-293
# Experimental: Rat recombinant serotonin 5-HT7R expressed in HEK-293 cells were purchased from PerkinElmer-NEN (Betsville, Md., USA).
# Radioligand Binding Assay at Rat Cloned 5-HT7Rs. Binding of [^3H]-LSD at rat cloned 5-HT7 receptor was performed according to a known method. In 1 mL of incubation buffer (50 mM Tris, 10 mM MgCl2 and 0.5 mM EDTA, pH 7.4) were suspended 30 μg of membranes, 2.5 nM [^3H]-LSD, the drugs or reference compound (six to nine concentrations). The samples were incubated for 60 min at 37° C. The incubation was stopped by rapid filtration on GF/A glass fiber filters (pre-soaked in 0.5% polyethylenimine for 30 min). The filters were washed with 3 ? 3 mL of ice-cold buffer (50 mM Tris, pH 7.4). Nonspecific binding was determined in the presence of 10 μM 5-CT. Approximately 90% of specific binding was determined under these conditions.
# 5-HT2A receptors [3] = target: T2, 5-HT2A receptors (Rattus norvegicus, UniProt P14842)
# Experimental: (§1) Radioligand Binding Assay at Rat Cortex Membranes 5-HT2A Receptors. […] Rats were killed by decapitation, the brain was quickly removed, and the cortex was dissected. […] The homogenate was centrifuged at 2000 g for 10 min at 4° C. The supernatant was saved, and the pellet was resuspended in 25 mL of buffer. The surnatantes were collected and diluted 1:10 w/w with 10 mM Tris pH 7.4. The homogenate was centrifugated at 35000 g for 15 min at 4° C. The supernatant was discarded, and the final pellet was stored at −80° C. until used. […] For competitive inhibition experiments various concentrations of drugs studied were incubated. […] Samples were incubated at 37° C. for 15 min and then filtered on Whatman GF/B glass microfiber filters.
# (§2) Statistical Analysis. […] PRISM® program. The value for the inhibition constant, Ki, was calculated by using the Cheng-Prusoff equation.
# 5-HT1A receptors = target: T3, 5-HT1A receptors (Rattus norvegicus, UniProt P19327); details: for Ki: read-out: Ki, nM 5-HT1A, [3H]-8-OH-DPAT, rat hippocampal membranes
# T3 sequence (P19327 1-422): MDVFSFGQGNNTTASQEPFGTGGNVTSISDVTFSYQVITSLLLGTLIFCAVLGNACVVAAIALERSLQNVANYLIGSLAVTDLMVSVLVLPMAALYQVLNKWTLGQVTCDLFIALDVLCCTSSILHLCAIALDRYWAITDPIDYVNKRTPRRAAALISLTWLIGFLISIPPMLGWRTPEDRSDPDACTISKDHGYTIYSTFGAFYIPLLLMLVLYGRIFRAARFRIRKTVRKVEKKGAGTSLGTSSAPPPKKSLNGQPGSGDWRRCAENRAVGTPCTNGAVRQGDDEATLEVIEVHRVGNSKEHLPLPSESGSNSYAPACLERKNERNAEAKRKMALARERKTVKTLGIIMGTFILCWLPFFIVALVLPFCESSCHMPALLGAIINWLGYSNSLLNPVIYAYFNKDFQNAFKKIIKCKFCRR
# Experimental: Radioligand Binding Assay at Rat Hippocampal Membranes 5-HT1A Receptors. Binding experiments were performed according to a known method. Rats were killed by decapitation, the brain was quickly removed, and the hippocampus was dissected. […] The homogenate was centrifuged at 48000 g for 15 min at 4° C. The supernatant was discarded, and the pellet was resuspended in 25 mL of buffer, then preincubated for 10 min at 37° C. The homogenate was centrifuged at 48000 g for 15 min at 4° C. The supernatant was discarded, and the final pellet was stored at −80° C. until used. […] For competitive inhibition experiments various concentrations of drugs studied were incubated. […] Samples were incubated at 37° C. for 20 min and then filtered on Whatman GF/B glass microfiber filters.
# Statistical Analysis. […] The value for the inhibition constant, Ki, was calculated by using the Cheng-Prusoff equation.
# hamsters = assay: Circadian phase shift in hamsters after injection; assay type: in vivo
# Source text: This provides evidence that no additional receptor subtype, such as the 5-HT1A receptor or the 5-HT5A receptor, is necessary for this effect.
# 5-HT2A receptors [4] = target: T2, 5-HT2A receptors; assay: Radioligand binding assay ([3H]-ketanserin) at rat cortex membranes 5-HT2A receptors
# Experimental: as §1, §2
# 5-HT7 receptor = 5-HT7 receptor (Cavia porcellus, UniProt P50407); assay: Isolated guinea-pig ileum assay: relaxation of substance P-induced contraction
# Sequence of 5-HT7 receptor (P50407 whole entry): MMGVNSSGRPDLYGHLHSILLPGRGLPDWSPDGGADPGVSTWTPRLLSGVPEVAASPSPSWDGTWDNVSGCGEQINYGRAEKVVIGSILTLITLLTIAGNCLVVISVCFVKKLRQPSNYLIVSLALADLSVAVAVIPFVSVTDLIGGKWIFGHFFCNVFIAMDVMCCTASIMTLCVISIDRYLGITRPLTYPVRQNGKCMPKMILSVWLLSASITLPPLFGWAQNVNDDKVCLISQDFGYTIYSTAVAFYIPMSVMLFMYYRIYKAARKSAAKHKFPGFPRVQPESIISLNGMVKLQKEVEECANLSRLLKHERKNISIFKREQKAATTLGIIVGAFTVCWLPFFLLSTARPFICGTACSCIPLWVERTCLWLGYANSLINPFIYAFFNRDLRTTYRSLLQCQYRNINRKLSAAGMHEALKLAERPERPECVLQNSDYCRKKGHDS
# Experimental: Isolated Guinea-Pig Ileum Assay. Guinea-pigs were anesthetized and then decapitated and the proximal ileum removed. […] Changes in tension of the tissue were recorded by Fort 10 Original WPI isometric transducer (2Biological Instruments, Italy) connected to a PowerLab/400 workstation. […] Tested compounds were added 3 min before substance P addition.
# The isolated guinea pig ileum was equilibrated for 75 min with antagonist before constructing concentration-response curves of tested compounds.
# Tissue responses were recorded as gram changes in isometric tension and expressed as percentage of reduction in the height of the contraction.
# Agonist potencies, expressed as EC50, were obtained from non-linear iterative curve fitting by [sequence] PRISM®.
# T2 sequence (P14842 whole entry): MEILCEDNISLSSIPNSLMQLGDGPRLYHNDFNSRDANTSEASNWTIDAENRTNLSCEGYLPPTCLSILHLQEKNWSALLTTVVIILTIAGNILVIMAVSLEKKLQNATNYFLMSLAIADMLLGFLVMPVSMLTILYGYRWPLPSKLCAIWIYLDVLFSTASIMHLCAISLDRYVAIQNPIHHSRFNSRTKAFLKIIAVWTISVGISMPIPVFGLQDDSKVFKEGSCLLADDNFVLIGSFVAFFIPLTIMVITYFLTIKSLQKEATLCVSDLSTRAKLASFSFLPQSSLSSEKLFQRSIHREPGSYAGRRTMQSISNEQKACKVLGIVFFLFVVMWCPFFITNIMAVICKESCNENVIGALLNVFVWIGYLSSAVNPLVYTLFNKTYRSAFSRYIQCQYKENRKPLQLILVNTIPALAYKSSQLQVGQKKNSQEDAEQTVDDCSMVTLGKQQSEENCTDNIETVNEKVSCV
# T1 sequence (P32305 whole entry): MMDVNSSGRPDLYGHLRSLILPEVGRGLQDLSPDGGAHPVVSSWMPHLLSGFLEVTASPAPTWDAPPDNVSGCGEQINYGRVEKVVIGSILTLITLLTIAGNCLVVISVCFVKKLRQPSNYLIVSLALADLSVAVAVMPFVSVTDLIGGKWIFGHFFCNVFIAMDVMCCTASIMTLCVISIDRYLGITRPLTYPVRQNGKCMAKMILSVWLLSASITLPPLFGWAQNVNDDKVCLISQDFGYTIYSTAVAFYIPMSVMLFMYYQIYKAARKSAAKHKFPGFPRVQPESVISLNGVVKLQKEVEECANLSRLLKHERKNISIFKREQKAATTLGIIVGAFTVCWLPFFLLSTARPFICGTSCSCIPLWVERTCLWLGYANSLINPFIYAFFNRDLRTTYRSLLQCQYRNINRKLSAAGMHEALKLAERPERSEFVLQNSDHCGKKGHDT
compound,measurement,setting,value
"substance P: contracting agent of the guinea-pig ileum assay, purchased from Tocris Cookson (RPKPQQFFGLM; ends and bridges not checked; UniProt P20366 58-68, looked up)","contraction, % of maximum contraction",[1],80%
"CC(=O)c1ccccc1N1CCN(CCCCCC(=O)NC2CCCc3ccccc32)CC1 (stereo not shown) (as salt: HCl) (hydrate or solvate) [Compound 34, 4-(2-Acetylphenyl)-N-(1,2,3,4-tetrahydronaphthalen-1-yl)-1-piperazinehexanamide]",melting point,,136 to 139 °C
NC(=O)c1ccccc1N1CCN(CCCCCC(=O)NC2CCCc3ccccc32)CC1 (stereo not shown) [Compound 43],Ki,[2],229 ± 12 nM
same,"5-HT2A, percentage in parentheses after >4000",5-HT2A receptors [3],9%
same,Ki,5-HT1A receptors,494 ± 35 nM
"COc1ccccc1N1CCN(CCCC(=O)NC2CCCc3cccc(OC)c32)CC1 (stereo not shown) (as salt: HCl) [Compound 23, N-(8-Methoxy-1,2,3,4-tetrahydronaphthalen-1-yl)4-(2-methoxyphenyl)-1-piperazinebutanamide]",melting point,,131 to 133 °C
"CC1CCN(CC[C@H]2CCCN2S(=O)(=O)c2cccc(O)c2)CC1 [SB-26770-A, reference compound]",effect on phase shifts caused by compound 44,"hamsters; microinjection into the dorsal raphe before compound 44, relative to vehicle pretreatment",significantly block phase shifts
"CSc1ccccc1N1CCN(CCCCCC(=O)NC2CCCc3ccccc32)CC1 (stereo not shown) [Compound 44, 4-(2-Methylthiophenyl)-N-(1,2,3,4-tetrahydronaphthalen-1-yl)-1-piperazinehexanamide]",5-HT7R affinity (in words),[2],high affinity
same,Ki,[2],0.22 nM
same,circadian phase shift,hamsters; microinjection into the dorsal raphe,cause phase shift advances
same,selectivity over 5-HT2A receptors,5-HT2A receptors [4]; 5-HT7R versus 5-HT2A,> 1000 fold
same,Ki,"5-HT2A receptors [4]; read-out: Ki, nM 5-HT2A, [3H]-ketanserin, rat cortex membranes",326 ± 35 nM
same,EC50,5-HT7 receptor,2560 nM
same,PA2 (vs SB-269970),5-HT7 receptor; in the presence of antagonist SB-269970 (0.1 μM-3 μM),7.70 ± 0.80
same,5-HT7 intrinsic activity (in words),5-HT7 receptor; isolated guinea-pig ileum,Full agonists
same,Emax,5-HT7 receptor; read-out: Maximal Effect %,100%
same,Schild plot,"5-HT7 receptor; vs SB-269970, p value in parentheses",0.9 (p < 0.0001)
same,selectivity over 5-HT1A receptors,5-HT1A receptors; 5-HT7R versus 5-HT1A,200 fold
same,Ki,5-HT1A receptors,52.7 ± 3.2 nM
CC(=O)c1ccc(N2CCN(CCCCCC(=O)NC3CCCc4ccccc43)CC2)cc1 (stereo not shown) (as salt: HCl) [Compound 42],melting point,,112 to 114 °C
CS(=O)(=O)c1ccccc1N1CCN(CCCCCC(=O)NC2CCCc3ccccc32)CC1 (stereo not shown) (as salt: HCl) (hydrate or solvate) [Compound 45],melting point,,120 to 122 °C
COc1ccc2c(c1)C(NC(=O)CCCCN1CCN(c3ccccc3OC)CC1)CCC2 (stereo not shown) (as salt: HCl) (hydrate or solvate) [Compound 21],melting point,,187 to 188 °C
"COc1ccccc1N1CCN(CCCCC(=O)NC2CCCc3ccccc32)CC1 (stereo not shown) (as salt: HCl) (hydrate or solvate) [Compound 27, 4-(2-Methoxyphenyl)-N-(1,2,3,4-tetrahydronaphthalen-1-yl)-1-piperazinepentanamide]",melting point,,199 to 200 °C
COc1ccc(OC)c(N2CCN(CCCCCC(=O)NC3CCCc4ccccc43)CC2)c1 (stereo not shown) (as salt: HCl) (hydrate or solvate) [Compound 36],melting point,,124 to 126 °C
COc1ccc2c(c1)C(NC(=O)CCCCCN1CCN(c3ccccc3OC)CC1)CCC2 (stereo not shown) (as salt: HCl) [Compound 22],melting point,,175 to 178 °C
CS(=O)(=O)c1ccccc1N1CCN(CCCCCC(=O)NC2CCCc3ccccc32)CC1 (stereo not shown) [Compound 45],Ki,[2],298 ± 16 nM
same,"5-HT2A, percentage in parentheses after >4000",5-HT2A receptors [3],38%
same,Ki,5-HT1A receptors,3120 ± 260 nM
